According to patent US7132542B2, “Compounds for the treatment of male erectile dysfunction” (Bristol-Myers Squibb Company, priority 2003, dated 2006):

How the values were obtained:
[1] = test system: cloned mammalian (mSlo or hSlo) BK channel; assay: Assay for BK channel openers: two-electrode voltage clamp of BK-mediated outward current in Xenopus oocytes; format: cell-based; conditions: percent increase over BK current in controls, voltage step to +140 mV, IBTX-sensitive current
Protocol: The ability of the compounds of the invention to open BK channels and increase whole-cell outward (K^+) BK-mediated currents was assessed under voltage-clamp conditions by determining their ability to increase cloned mammalian (mSlo or hSlo) BK-mediated outward current heterologously expressed in Xenopus oocytes [Butler, A., et al., Science 1993, 261, 221–224; Dworetzky, S. I., et al., Mol. Brain Res. 1994, 27, 189–193; Gribkoff, V. K., et al., Mol. Pharmacol. 1996, 50, 206–217]. The two BK constructs employed represent nearly structurally identical homologous proteins, and have proven to be pharmacologically indistinguishable in our tests. To isolate BK current from native (background, non-BK) current, the specific and potent BK channel-blocking toxin iberiotoxin (IBTX) [Galvez, A., et al., J. Biol. Chem. 1990, 265, 11083–11090] was employed at a supramaximal concentration, e.g., 50–100 nanomolar (“nM”). The relative contribution of BK channel-mediated current to total outward current was determined by subtraction of the current remaining in the presence of IBTX (non-BK current) from the current profiles obtained in all other experimental conditions (control, drug, and wash) [Gribkoff, V. K. et al., Mol. Pharmacol. 1996, 50, 206–217]. […] All compounds were tested in 5–10 oocytes and are reported at the indicated concentration of 20 micromolar (“μM”) (or as otherwise indicated); the effect of the selected compounds of the invention on BK current was expressed as the percent of control IBTX-sensitive current at a single transmembrane voltage (+140 mV) and is listed in Table 1. Recordings were accomplished using standard two-electrode voltage clamp techniques [Stuhmer, W., et al., Methods in Enzymology, 1992, 207, 319–339]; voltage-clamp protocols consisted of 500–750 milliseconds (“ms”) duration step depolarizations, from a holding potential of −60 mV, to a final voltage up to +140 mV in 20 mV steps. The experimental media (modified Barth's solution) consisted of millimolar (“mM”): NaCl (88), NaHCO3 (2.4), KCl (1.0), HEPES (10), MgSO4 (0.82), Ca(NO3)2 (0.33), CaCl2 (0.41); pH 7.5.

[2] = test system: rabbit corpus cavernosum tissue; assay: Relaxation of rabbit corpus cavernosum strips precontracted with phenylephrine; conditions: Oryctolagus cuniculus; inhibition of phenylephrine (3 μM)-induced force as compared to vehicle control; read-out: % Inhibition of force (RCC strips)
Protocol: The ability of the compounds of the invention to relax rabbit corpus cavernosum tissue as a model for the treatment of erectile dysfunction is described as follows. New Zealand white rabbits (3.4–3.7 kg) were euthanized by sodium pentobarbital (100 mg/kg) overdose. The penis from each animal was rapidly removed and immersed in a cold oxygenated modified Krebs Henseleit bicarbonate buffer. The penis' outer tunica was removed and the corpus cavernosum smooth muscle obtained and cut into strips approximately 3–5 mm long. The strips were suspended in tissue baths containing physiological salt solution (see above), and allowed to equilibrate for at least one hour under resting tension of 1.0 gram. Isometric force was measured as described above. Tissue strips were stimulated with the α-agonist phenylephrine (3 μM) and allowed to reach a steady level of force prior to the addition of test compounds. The results are expressed as the percentage inhibition of phenylephrine-induced force as compared to vehicle control.

[3] = test system: rat small intestine tissue; assay: Relaxation of rat small intestine (ileum) segments; parameters: concentration or dose not given beside the values; conditions: integral of nifedipine-sensitive force, 30 min post-compound addition
Text: The ability of the compounds of the invention to relax rat small intestine tissue as a model for the treatment of irritable bowel syndrome is described as follows. Male rats (Harlan, Sprague Dawley, 250–350 g) were sacrificed by decapitation. A portion of small intestine (ileum) was removed and the attached connective tissues and intestinal contents removed. The ileum was cut into segments of ≦1 cm in length. The segments were mounted longitudinally between fixed hooks in organ baths containing warm (37° C.) physiological salt solution (composition in mM: NaCl 118.4, KCl 4.7, KH2PO4 1.2, MgSO4 1.2, CaCl2 1.8, Glucose 10.1, NaHCO3 25; gassed with 95% O2/5% CO2, pH 7.4). A stable tension of ˜1.5 g was maintained in the tissue segments during the equilibration period of 45 minutes. Changes in muscle tension were measured with isometric force transducers (Grass, FT-03C) and recorded using AcqKnowledge data acquisition system (AcqKnowledge for MP100WS, Biopac Systems Inc., Goleta, Calif.). Compound or vehicle was added in the baths for 30 minutes. “Zero” active force was established at the end of the experiment using nifedipine (20 μM). The effects of compounds or vehicle on force was determined by measuring the integral of nifedipine-sensitive force (including resting tone and spontaneous contractions) pre- and 30 min post-compound (or vehicle) addition. Results are expressed as the percentage inhibition of force. DMSO vehicle inhibited force (integral) by −0.6±3.0% (n=25).

Q: What does the source list for `O=C(CN1CCOCC1)Nc1ccc(Sc2c(-c3cc(Cl)ccc3O)c3cc(C(F)(F)F)ccc3[nH]c2=O)cc1` [Example 1, N-{4-[4-(5-Chloro-2-hydroxy-phenyl)-2-oxo-6-trifluoromethyl-1,2-dihydro-quinolin-3-ylsulfanyl]-phenyl}-2-morpholin-4-yl-acetamide]?
A: % MaxiK opening ([1]; at 1 μM): 296^⋄ %; inhibition [2]: 34%; % Inhibition of force (RSI strips) [3]: 51%

Q: `CN1CCN(CC(=O)Nc2ccc(Sc3c(-c4cc(Cl)ccc4O)c4cc(C(F)(F)F)ccc4[nH]c3=O)cc2)CC1` [Example 2, N-{4-[4-(5-Chloro-2-hydroxy-phenyl)-2-oxo-6-trifluoromethyl-1,2-dihydro-quinolin-3-ylsulfanyl]-phenyl}-2-(4-methyl-piperazin-1-yl)-acetamide] was tested. Which “% MaxiK opening” value ([1]; at 20 μM) did it give?
A: The value was 246%.

Q: And the inhibition [2]?
A: Its inhibition is 19%.

Q: And the “% Inhibition of force (RSI strips)” value [3]?
A: Its value is 36%.

Q: What does the source list for `O=C(CCN1CCOCC1)Nc1ccc(Sc2c(-c3cc(Cl)ccc3O)c3cc(C(F)(F)F)ccc3[nH]c2=O)cc1` [Example 3, N-{4-[4-(5-Chloro-2-hydroxy-phenyl)-2-oxo-6-trifluoromethyl-1,2-dihydro-quinolin-3-ylsulfanyl]-phenyl}-3-morpholin-4-yl-propionamide]?
A: % MaxiK opening ([1]; at 20 μM): 453%; inhibition [2]: 22%; % Inhibition of force (RSI strips) [3]: 50%

Q: For `O=C(CCN1CCCC1)Nc1ccc(Sc2c(-c3cc(Cl)ccc3O)c3cc(C(F)(F)F)ccc3[nH]c2=O)cc1` [Example 4, N-{4-[4-(5-Chloro-2-hydroxy-phenyl)-2-oxo-6-trifluoromethyl-1,2-dihydro-quinolin-3-ylsulfanyl]-phenyl}-3-pyrrolidin-1-yl-propionamide], which “% MaxiK opening” value ([1]; at 20 μM) is on record?
A: Its value is 264%.

Q: What about the inhibition [2] of the same molecule?
A: Its inhibition is 35%.

Q: How did the “% MaxiK opening” value ([1]; at 20 μM) turn out when `O=C(CCCN1CCCC1)Nc1ccc(Sc2c(-c3cc(Cl)ccc3O)c3cc(C(F)(F)F)ccc3[nH]c2=O)cc1` [Example 5, N-{4-[4-(5-Chloro-2-hydroxy-phenyl)-2-oxo-6-trifluoromethyl-1,2-dihydro-quinolin-3-ylsulfanyl]-phenyl}-4-pyrrolidin-1-yl-butyramide] was run?
A: Its value is 280%.

Q: What about the inhibition [2] of the same molecule?
A: Its inhibition is 36%.

Q: What about the “% Inhibition of force (RSI strips)” value [3] of the same molecule?
A: Its value is 65%.

Q: Which results are given for `O=C(CN1CCCC1)Nc1ccc(Sc2c(-c3cc(Cl)ccc3O)c3cc(C(F)(F)F)ccc3[nH]c2=O)cc1` [Example 6, N-[4-[[4-(5-chloro-2-hydroxyphenyl)-1,2-dihydro-2-oxo-6-(trifluoromethyl)-3-quinolinyl]thio]phenyl]-1-pyrrolidineacetamide]?
A: % MaxiK opening ([1]; at 20 μM): 291%; inhibition [2]: 28%

Q: What does the source list for `CN(C)CCN(C)CC(=O)Nc1ccc(Sc2c(-c3cc(Cl)ccc3O)c3cc(C(F)(F)F)ccc3[nH]c2=O)cc1` [Example 7, N-[4-[[4-(5-chloro-2-hydroxyphenyl)-1,2-dihydro-2-oxo-6-(trifluoromethyl)-3-quinolinyl]thio]phenyl]-2-[[2-(dimethylamino)ethyl]methylamino]acetamide]?
A: % MaxiK opening ([1]; at 20 μM): 231%; inhibition [2]: 16%; % Inhibition of force (RSI strips) [3]: 41%

Q: For `O=C(CN1CCC(N2CCCCC2)CC1)Nc1ccc(Sc2c(-c3cc(Cl)ccc3O)c3cc(C(F)(F)F)ccc3[nH]c2=O)cc1` [Example 8, N-[4-[[4-(5-chloro-2-hydroxyphenyl)-1,2-dihydro-2-oxo-6-(trifluoromethyl)-3-quinolinyl]thio]phenyl]-[1,4′-bipiperidine]-1′-acetamide], which “% MaxiK opening” value ([1]; at 20 μM) is on record?
A: The value was 283%.

Q: And the inhibition [2]?
A: The inhibition was 45%.

Q: `O=C(CN1CCN(c2ccccn2)CC1)Nc1ccc(Sc2c(-c3cc(Cl)ccc3O)c3cc(C(F)(F)F)ccc3[nH]c2=O)cc1` [Example 9, N-[4-[[4-(5-chloro-2-hydroxyphenyl)-1,2-dihydro-2-oxo-6-(trifluoromethyl)-3-quinolinyl]thio]phenyl]-4-(2-pyridinyl)-1-piperazineacetamide] was tested. Which “% MaxiK opening” value ([1]; at 10 μM) did it give?
A: Its value is 116^⋄⋄ %.

Q: And the inhibition [2]?
A: The inhibition was 17%.

Q: For `CN(C)C1CCN(CC(=O)Nc2ccc(Sc3c(-c4cc(Cl)ccc4O)c4cc(C(F)(F)F)ccc4[nH]c3=O)cc2)CC1` [Example 10, N-[4-[[4-(5-chloro-2-hydroxyphenyl)-1,2-dihydro-2-oxo-6-(trifluoromethyl)-3-quinolinyl]thio]phenyl]-4-(dimethylamino)-1-piperidineacetamide], which “% MaxiK opening” value ([1]; at 20 μM) is on record?
A: Its value is 292%.

Q: And the inhibition [2]?
A: Its inhibition is 19%.

Q: And the “% Inhibition of force (RSI strips)” value [3]?
A: The value was 54%.

Q: What does the source list for `CN1CCN(CCC(=O)Nc2ccc(Sc3c(-c4cc(Cl)ccc4O)c4cc(C(F)(F)F)ccc4[nH]c3=O)cc2)CC1` [Example 11, N-[4-[[4-(5-chloro-2-hydroxyphenyl)-1,2-dihydro-2-oxo-6-(trifluoromethyl)-3-quinolinyl]thio]phenyl]-4-methyl-1-piperazinepropanamide]?
A: % MaxiK opening ([1]; at 20 μM): 474%; inhibition [2]: 30%; % Inhibition of force (RSI strips) [3]: 70%

Q: How did the “% MaxiK opening” value ([1]; at 20 μM) turn out when `CN(C)CCN(C)CCC(=O)Nc1ccc(Sc2c(-c3cc(Cl)ccc3O)c3cc(C(F)(F)F)ccc3[nH]c2=O)cc1` [Example 12, N-[4-[[4-(5-chloro-2-hydroxyphenyl)-1,2-dihydro-2-oxo-6-(trifluoromethyl)-3-quinolinyl]thio]phenyl]-3-[[2-(dimethylamino)ethyl]methylamino]propanamide] was run?
A: Its value is 489%.

Q: And the inhibition [2]?
A: The inhibition was 29%.

Q: How did the “% MaxiK opening” value ([1]; at 20 μM) turn out when `O=C(CCCN1CCC(N2CCCCC2)CC1)Nc1ccc(Sc2c(-c3cc(Cl)ccc3O)c3cc(C(F)(F)F)ccc3[nH]c2=O)cc1` [Example 15, N-[4-[[4-(5-chloro-2-hydroxyphenyl)-1,2-dihydro-2-oxo-6-(trifluoromethyl)-3-quinolinyl]thio]phenyl]-[1,4′-bipiperidine]-1′-butanamide] was run?
A: Its value is 268%.

Q: With `O=C(CCCN1CCN(c2ccccn2)CC1)Nc1ccc(Sc2c(-c3cc(Cl)ccc3O)c3cc(C(F)(F)F)ccc3[nH]c2=O)cc1` [Example 16, N-[4-[[4-(5-chloro-2-hydroxyphenyl)-1,2-dihydro-2-oxo-6-(trifluoromethyl)-3-quinolinyl]thio]phenyl]-4-(2-pyridinyl)-1-piperazinebutanamide] as the molecule, how does the “% MaxiK opening” value ([1]; at 1 μM) read?
A: The value was 197^⋄ %.

Q: What about the inhibition [2] of the same molecule?
A: Its inhibition is 37%.
